Reference: patent US20110003820A1, “PYRAZOLOPYRIMIDINES, A PROCESS FOR THEIR PREPARATION AND THEIR USE AS MEDICINE” (MERZ PHARMA GMBH & CO. KGaA, priority 2008, published 2011)

What was measured:
[1] = molecular target: T1, transmembrane allosteric modulatory sites of mGluR5 receptors in cortical membranes (Rattus norvegicus, UniProt P31424); assay: [3H]-MMPEP binding assay in rat cortical membranes; conditions: 3H-MMPEP radioligand, read-out: mGluR5_M_MPEP_r_CTX_IC50
T1 construct: from tissue; host or cells: cortex of male Sprague-Dawley rats, membrane preparation
Description: Binding Assays for the Characterization of mGluR5 Antagonists
Preparation of Rat Cortical Membranes:
Male Sprague-Dawley rats (200-250 g) are decapitated and their brains are removed rapidly. The cortex is dissected and homogenized in 20 volumes of ice-cold 0.32 M sucrose using a glass-Teflon homogenizer. The homogenate is centrifuged at 1000×g for 10 minutes. The pellet is discarded and the supernatant centrifuged at 20,000×g for 20 minutes. The resulting pellet is re-suspended in 20 volumes of distilled water and centrifuged for 20 minutes at 8000×g. Then the supernatant and the buffy coat are centrifuged at 48,000×g for 20 minutes in the presence of 50 mM Tris-HCl, pH 8.0. The pellet is then re-suspended and centrifuged two to three more times at 48,000×g for 20 minutes in the presence of 50 mM Tris-HCl, pH 8.0. All centrifugation steps are carried out at 4° C. After resuspension in 5 volumes of 50 mM Tris-HCl, pH 8.0 the membrane suspension is frozen rapidly at −80° C.
On the day of assay the membranes are thawed and washed four times by resuspension in 50 mM Tris-HCl, pH 8.0 and centrifugation at 48,000×g for 20 minutes and finally re-suspended in 50 mM Tris-HCl, pH 7.4. The amount of protein in the final membrane preparation (500-700 μg/ml) is determined according to the method of Lowry (Lowry O. H. et al. 1951. J. Biol. Chem. 193, 256-275).
Incubations are started by adding[^3H]-MPEP (50.2 Ci/mmol, 5 nM, Tocris, GB) to vials with 125-250 μg protein (total volume 0.25 ml) and various concentrations of the agents.
Alternatively, assays are performed with [^3H]-MMPEP (2-(3-methoxyphenylethynyl)-6-methylpyridine hydrochloride) as radioligand. The incubations are continued at room temperature for 60 minutes (equilibrium is achieved under the conditions used). […] Incubations are terminated using a Millipore filter system. The samples are rinsed twice with 4 ml of ice-cold assay buffer over glass fibre filters (Schleicher & Schuell, Germany) under a constant vacuum. Following separation and rinse, the filters are placed into scintillation liquid (5 ml Ultima Gold, Perkin Elmer, Germany) and radioactivity retained on the filters is determined with a conventional liquid scintillation counter (Can berra Packard, Germany).

[2] = molecular target: T2, metabotropic glutamate receptor (mGluR5) (Homo sapiens, UniProt P41594); assay: Cytosolic Calcium studies with stably transfected cells (FLIPR, CHO-K1); format: cell-based; set-up: expressed in transfected cells; host or cells: CHO-K1 cells, IPTG-inducible expression; conditions: CHO-K1 cells expressing human mGluR5; agonist L-quisqualic acid at ~80% of maximal signal; read-out: mGluR5_FLIPR_h_CHO_NAM IC50
Description: Functional Assays of mGluR5 Receptors
Cytosolic Calcium studies with stably transfected cells:
Chinese hamster ovary cells (CHO-K1 cells), stably transfected for inducible expression of a human metabotropic glutamate receptor mGluR5, are seeded into black clear bottom 96 well plates at a density of 35.000 cells per well. The standard growth medium used (Dulbecco's modified Eagle Medium, DMEM plus L-proline) contains the appropriate inducer isopropyl-β-D-thiogalactopyranosid (IPTG) to achieve optimal receptor expression. One day after seeding the growth medium is exchanged for reconstituted Ca-Kit (Molecular Devices, USA) and incubated for one hour. Ca-Kit is reconstituted in an assay buffer containing 20 mM HEPES pH 7.4, glutamic-pyruvate transaminase, pyridoxal phosphate and sodium pyruvate in Hank's balanced salt solution (HBBS). Agonistic compounds to the receptor elicit increases in cytosolic calcium which can be measured as increases in fluorescence signals by use of a fluorescence imaging plate reader (Molecular Devices).
(§1) The fluorescence signal increase after addition of agonist reflects the increase of cytosolic calcium. Inconsistencies in the amount of cells per well are normalised by using the spatial uniformity correction of the FLIPR software. The mean of replicated temporal data (n=3-5) is calculated and used for graphical representation. For the evaluation of the pharmacology, the calcium changes in response to different concentrations of agonist or antagonist are determined using a maximum minus minimum (MaxMin) calculation.
(§2) All responses (RFU-values) are determined as percentage of control (=maximum response). EC50 and IC50 are calculated according the logistic equation using GraFit 5.0 (Erithacus Software, GB) or Prism 4.0 (GraphPad Software, USA). The compounds of the present invention have a potency (IC50) within a range of about […].

mGluR5 receptors = molecular target: T3, mGluR5 receptors (Rattus norvegicus, UniProt P31424); assay: Cytosolic Calcium studies with astrocytes (astrocyte culture test, FLIPR); format: cell-based; conditions: primary rat cortical astrocytes; L-quisqualate 100 nM; read-out: mGluR5_FLIPRr_rpA IC50
T3 construct: Primary astrocyte cultures are prepared from cortices of newborn rats; endogenous in cells; host or cells: primary cortical astrocytes of Sprague-Dawley rat pups (2-4 d old)
Description: Primary astrocyte cultures are prepared from cortices of newborn rats as described by Booher and Sensenbrenner (1972, Neurobiology 2(3):97-105). Briefly, Sprague-Dawley rat pups (2-4 d old) are decapitated and neocortices are dissected, disintegrated with a nylon filter (pore size 80 μm) and carefully triturated. The cell suspension is plated on poly-D-lysine pre-coated flasks (Costar, Netherlands) and cultivated in Dulbecco's Modified Eagle's Medium (DMEM, Invitrogen, Germany) supplemented with 10% foetal calf serum (FCS, Sigma, Germany), 4 mM glutamine and 50 μg/ml gentamycin (both Biochrom, Germany) at 37° C. in a humidified atmosphere of 5% CO2/95% air for 7 d with exchanging the medium at day 2 and 6.
After 7 days in vitro (DIV), cells are shaken overnight at 250 rpm to remove oligodendrocytes and microglia. The next day, astrocytes are rinsed twice with CMF-PBS (calcium- and magnesium-free phosphate buffered saline, Biochrom, Germany), trypsinized and subplated on poly-D-lysine pre-coated 96-well plates (Greiner, Germany) at a density of 40,000 cells/well. 24 h after establishing the secondary culture the astrocytes are rinsed with PBS^++ (phosphate buffered saline, Biochrom, Germany) and fed with astrocyte-defined medium (ADM) consisting of DMEM containing 1×G5-supplement (Invitrogen, Germany), 0.5 μg/ml heparan sulfate, and 1.5 μg/ml fibronectin (both Sigma, Germany) (Miller et al., (1993) Brain Res. 618(1):175-8). 3 d later the medium is exchanged and the cells incubated for another 2-3 d, so that at the time of experiments astrocytes are 14-15 DIV.
Cytosolic Calcium Studies with Astrocytes:
The increase of cytosolic calcium after stimulation with the mGluR5 agonist L-quisqualate is measured using a fluorometric imaging plate reader (FLIPR) and the Ca-Kit (both Molecular Devices). Prior to addition of agonist or antagonist the medium is aspirated and cells are loaded for 2 h at RT with 150 μl of loading buffer consisting of Ca-sensitive dye reconstituted in sodium chloride (123 mM), potassium chloride (5.4 mM), magnesium chloride (0.8 mM), calcium chloride (1.8 mM), D-glucose (15 mM), and HEPES (20 mM), pH 7.3. Subsequently, plates are transferred to FLIPR to detect calcium increase with the addition of L-quisqualate (100 nM) measured as relative fluorescence units (RFU). If antagonists are tested, these compounds are pre-incubated for 10 minutes at RT before addition of the respective agonist.
as §1, §2

[3] = molecular target: T2, metabotropic glutamate receptor (mGluR5); assay: Activity as mGluR5 modulator of prior-art compounds (test not described); conditions: result in words

T3 sequence (P31424 21-1203): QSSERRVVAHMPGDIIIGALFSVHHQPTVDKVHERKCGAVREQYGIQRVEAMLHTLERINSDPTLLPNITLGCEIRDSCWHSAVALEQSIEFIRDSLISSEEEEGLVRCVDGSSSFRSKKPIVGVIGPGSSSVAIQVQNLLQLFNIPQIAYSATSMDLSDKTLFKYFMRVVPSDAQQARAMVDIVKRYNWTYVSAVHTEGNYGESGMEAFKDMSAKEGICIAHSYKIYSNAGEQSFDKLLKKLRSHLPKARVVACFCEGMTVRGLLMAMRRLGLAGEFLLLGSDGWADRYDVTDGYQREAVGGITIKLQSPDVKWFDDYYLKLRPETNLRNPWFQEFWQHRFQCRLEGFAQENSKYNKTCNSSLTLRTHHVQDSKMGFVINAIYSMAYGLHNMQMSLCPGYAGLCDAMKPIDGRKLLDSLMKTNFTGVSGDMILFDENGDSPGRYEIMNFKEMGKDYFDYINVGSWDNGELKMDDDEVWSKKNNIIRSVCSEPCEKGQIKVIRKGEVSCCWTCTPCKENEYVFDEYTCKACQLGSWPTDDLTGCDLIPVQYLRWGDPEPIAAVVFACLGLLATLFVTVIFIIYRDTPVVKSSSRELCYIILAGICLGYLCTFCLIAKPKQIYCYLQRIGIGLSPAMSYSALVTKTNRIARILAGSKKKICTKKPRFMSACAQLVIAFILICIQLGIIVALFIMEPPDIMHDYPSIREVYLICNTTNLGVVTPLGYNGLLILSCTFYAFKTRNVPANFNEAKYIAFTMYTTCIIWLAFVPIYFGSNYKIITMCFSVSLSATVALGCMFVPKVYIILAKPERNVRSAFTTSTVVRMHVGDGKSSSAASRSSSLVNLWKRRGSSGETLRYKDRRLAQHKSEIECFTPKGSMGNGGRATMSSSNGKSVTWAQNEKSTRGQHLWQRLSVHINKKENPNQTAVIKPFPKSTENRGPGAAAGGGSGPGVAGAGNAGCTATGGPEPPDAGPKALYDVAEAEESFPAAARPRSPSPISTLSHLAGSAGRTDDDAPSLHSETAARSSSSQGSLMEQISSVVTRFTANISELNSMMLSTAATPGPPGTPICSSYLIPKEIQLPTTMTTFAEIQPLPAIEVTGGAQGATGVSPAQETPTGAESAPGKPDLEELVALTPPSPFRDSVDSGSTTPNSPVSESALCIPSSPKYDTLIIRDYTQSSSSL
T1 sequence (P31424 21-1203): as above
T2 sequence (P41594 21-1212): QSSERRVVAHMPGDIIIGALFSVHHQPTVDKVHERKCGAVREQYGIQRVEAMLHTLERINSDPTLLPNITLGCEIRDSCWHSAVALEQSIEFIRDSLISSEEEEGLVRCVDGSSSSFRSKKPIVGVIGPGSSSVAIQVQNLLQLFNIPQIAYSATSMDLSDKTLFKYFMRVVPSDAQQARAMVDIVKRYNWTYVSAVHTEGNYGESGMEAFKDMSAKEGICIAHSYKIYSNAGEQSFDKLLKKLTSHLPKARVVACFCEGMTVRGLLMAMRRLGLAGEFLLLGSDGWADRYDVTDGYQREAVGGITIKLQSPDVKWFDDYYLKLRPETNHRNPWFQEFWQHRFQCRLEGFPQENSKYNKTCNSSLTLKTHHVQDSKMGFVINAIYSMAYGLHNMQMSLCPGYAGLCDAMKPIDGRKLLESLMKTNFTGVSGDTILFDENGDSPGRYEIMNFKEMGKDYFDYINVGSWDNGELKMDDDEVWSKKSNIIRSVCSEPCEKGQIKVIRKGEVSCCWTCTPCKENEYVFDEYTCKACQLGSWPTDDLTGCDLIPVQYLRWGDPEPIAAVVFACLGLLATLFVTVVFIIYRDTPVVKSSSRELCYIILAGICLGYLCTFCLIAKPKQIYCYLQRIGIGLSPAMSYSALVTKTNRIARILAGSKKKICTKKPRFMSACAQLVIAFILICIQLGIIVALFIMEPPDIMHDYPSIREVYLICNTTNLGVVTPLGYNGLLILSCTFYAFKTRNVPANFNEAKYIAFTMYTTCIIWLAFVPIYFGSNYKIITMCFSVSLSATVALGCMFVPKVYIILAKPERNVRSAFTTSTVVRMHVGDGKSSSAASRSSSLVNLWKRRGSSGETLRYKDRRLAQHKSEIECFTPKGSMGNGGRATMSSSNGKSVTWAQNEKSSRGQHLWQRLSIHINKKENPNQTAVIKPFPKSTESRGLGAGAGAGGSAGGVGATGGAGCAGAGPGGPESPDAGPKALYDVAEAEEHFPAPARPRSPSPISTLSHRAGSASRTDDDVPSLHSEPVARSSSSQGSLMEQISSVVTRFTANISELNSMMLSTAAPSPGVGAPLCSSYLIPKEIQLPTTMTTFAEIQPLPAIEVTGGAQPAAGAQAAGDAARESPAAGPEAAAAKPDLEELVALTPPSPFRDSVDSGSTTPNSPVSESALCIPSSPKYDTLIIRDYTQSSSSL

IC50 [1] [nM] | IC50 [2] [nM] | IC50 (mGluR5 receptors) [nM] | activity as metabotropic glutamate receptor (mGluR5) modulator [3] | selectivity [3] | SMILES
54.9 | 74.5 | 15 |  |  | CC1c2ccc(Br)n2CCN1C(=O)c1cc2ncc(Br)cn2n1 (stereo not drawn) [Example 39, (6-Bromo-1-methyl-3,4-dihydro-1H-pyrrolo[1,2-a]pyrazin-2-yl)-(6-bromo-pyrazolo[1,5-a]pyrimidin-2-yl)-methanone]
247 | 166 | 82.3 |  |  | CN1c2ccccc2CCN1C(=O)c1cc2ncc(Cl)cn2n1 [Example 181, (6-Chloro-pyrazolo[1,5-a]pyrimidin-2-yl)-(1-methyl-3,4-dihydro-1H-cinnolin-2-yl)-methanone]
42 | 91 | 21.9 |  |  | CC1c2ccc(Cl)n2CCN1C(=O)c1cc2ncc(Cl)cn2n1 (stereo not drawn) [Example 29, (6-Chloro-1-methyl-3,4-dihydro-1H-pyrrolo[1,2-a]pyrazin-2-yl)-(6-chloro-pyrazolo[1,5-a]pyrimidin-2-yl)-methanone]
281 | 189 | 63.7 |  |  | CN1c2ccccc2CCN1C(=O)c1cc2ncc(Br)cn2n1 [Example 182, (6-Bromo-pyrazolo[1,5-a]pyrimidin-2-yl)-(1-methyl-3,4-dihydro-1H-cinnolin-2-yl)-methanone]
73 | 34.2 | 17 |  |  | CC1c2ccc(Br)n2CCN1C(=O)c1cc2ncc(Cl)cn2n1 (stereo not drawn) [Example 37, (6-Bromo-1-methyl-3,4-dihydro-1H-pyrrolo[1,2-a]pyrazin-2-yl)-(6-chloro-pyrazolo[1,5-a]pyrimidin-2-yl)-methanone]
 |  |  | no particular activity |  | O=C(c1cc2ncc(Br)cn2n1)N1CCCCC1 [Example B308, (6-Bromopyrazolo[1,5-a]pyrimidin-2-yl)-piperidin-1-yl-methanone]
 | 24.5 | 7.8 |  |  | C[C@@H]1c2ccc(Cl)n2CCN1C(=O)c1cc2ncc(Br)cn2n1 [(R)-(6-Bromo-pyrazolo[1,5-a]pyrimidin-2-yl)-(6-chloro-1-methyl-3,4-dihydro-1H-pyrrolo[1,2-a]pyrazin-2-yl)-methanone]
219 | 222 | 50 |  |  | Cc1ccc2n1CCN(C(=O)c1cc3ncc(Br)cn3n1)C2C (stereo not drawn) [Example 7, (6-Bromo-pyrazolo[1,5-a]pyrimidin-2-yl)-(1,6-dimethyl-3,4-dihydro-1H-pyrrolo[1,2-a]pyrazin-2-yl)-methanone]
44.5 | 84.4 | 22.5 |  |  | CC1c2ccc(Cl)n2CCN1C(=O)c1cc2ncc(Br)cn2n1 (stereo not drawn) [Example 31, (6-Chloro-1-methyl-3,4-dihydro-1H-pyrrolo[1,2-a]pyrazin-2-yl)-(6-bromo-pyrazolo[1,5-a]pyrimidin-2-yl)-methanone]
 |  |  | no particular activity |  | O=C(c1cc2ncc(Br)cn2n1)N1CCOCC1 [Example B310, (6-Bromopyrazolo[1,5-a]pyrimidin-2-yl)-morpholin-4-yl-methanone]
274 | 327 | 87.3 |  |  | Cc1ccc2n1CCN(C(=O)c1cc3ncc(Cl)cn3n1)C2C (stereo not drawn) [Example 5, (6-Chloro-pyrazolo[1,5-a]pyrimidin-2-yl)-(1,6-dimethyl-3,4-dihydro-1H-pyrrolo[1,2-a]pyrazin-2-yl)-methanone]
 |  |  | only a limited activity | not selective | O=C(c1cc2ncc(Br)cn2n1)N1CCc2ccccc2C1 [M, (6-Bromo-pyrazolo[1,5-a]pyrimidin-2-yl)-(1,2,3,4-tetrahydro-isoquinolin-2-yl)-methanone]
74 | 118 | 34.3 |  |  | Cc1ccc2n1CCN(C(=O)c1cc3ncc(Br)cn3n1)[C@@H]2C [(R)-(6-Bromo-pyrazolo[1,5-a]pyrimidin-2-yl)-(1,6-dimethyl-3,4-dihydro-1H-pyrrolo[1,2-a]pyrazin-2-yl)-methanone]
